Assay results published in paper PMC3740683, “ML212: A small-molecule probe for investigating fluconazole resistance mechanisms in Candida albicans” (Beilstein Journal of Organic Chemistry, 2013).
In brackets after ≈: the same amount, converted by molar mass.

Experiments:
[1] = test system: Hsp90-dependent signaling pathway; experiment: Yeast-reporter assay, Hsp90-dependent signaling pathway; type: cell-based; conditions: Saccharomyces cerevisiae
[2] = Plasma stability, murine plasma; type: in vitro ADME; conditions: 5 h incubation
Solubility in PBS = type: physicochemical; conditions: aqueous buffer
[3] = test system: calcineurin-dependent signaling pathway; experiment: Yeast-reporter assay, calcineurin-dependent signaling pathway; type: cell-based; conditions: Saccharomyces cerevisiae
C. albicans CaCi-2 = experiment: Secondary assay 2: CaCi-2 in the absence of fluconazole; type: cell-based; conditions: Candida albicans, CACI2; no fluconazole, 48 h incubation; read-out: IC50 against C. albicans in the absence of fluconazole
Method: 5) Then, pin 100 nL of test compound from compound plates into assay plates using a CyBi-Well pin tool.
6) Dispense 20 µL/well of culture into the assay media in all wells.
7) Incubate the plates in a humidified (90% humidity) Liconic incubator at 37 °C without agitation for 48 hours.
8) Dilute Alamar Blue 1:40 in Ca/Mg-free PBS.
9) To all plates, add 5 µL/well of the diluted Alamar Blue to plates to a final dilution […]
10) Incubate the plates for 2 hours.
11) Read the relative fluorescence intensity (RFU) of wells on a standard plate reader as a measure of relative fungal growth. EnVision (Perkin Elmer) plate reader setup: Ex 544 nm, Em 590 nm, bandwidth 12 nm, top read.
Secondary assay 2: CaCi-2 in the absence of fluconazole
Clear, flat-bottom, black 384-well plates (Corning Catalog no. 3712BC; Lot no.
35808016); geldanamycin (AG Scientific Catalog no. G-1047) 15 mM stock solution in […]
2) Read OD 600 of 1 mL of fungal culture in a cuvette using a standard optical density reader (Eppendorf BioPhotometer Plus), with growth medium as a […]
measured) × (desired final volume of inoculum) × 0.3 = volume of fungal culture […]
this yields a calculated starting OD of the fungal inoculum of 0.00015. […]
11) Read relative fluorescence intensity (RFU) of wells on a standard plate reader as […]
measure of relative fungal growth. EnVision (Perkin Elmer) plate reader settings: […]

For `COC(=O)Cn1nc(-c2cccc(OC)c2)c2ccccc21` [Compound 36], the IC50 [1] was over 26 µM, the “remaining after incubation in plasma” value [2] was under 10% and the solubility (Solubility in PBS) was 55 µM (≈ 16.3 µg/mL). The IC50 [3] was over 26 µM and the IC50 (C. albicans CaCi-2) was over 26 µM.
